Experimental findings from patent US11884706B2, “Immunomodulating peptide derived from concave-eared torrent frog and use thereof” (priority 2019, dated 2024) are described below.

This experiment has as its system mouse skin wounds. As to the kind of experiment: Skin wound healing in mice (8 mm biopsy punch wound on the back). In kind it is in vivo, BALB/c mice. The conditions noted are these: 20 μL, 200 μg/mL dripped into wound once a day for 8 days; days 2, 4, 6, 8 after operation; vs PBS. The protocol:
Experimental animals BALB/c mice, female, 6-8 weeks old, weighed 18-20 g, were purchased from Shanghai Slac Animal Co., Ltd. The mice were anesthetized by intraperitoneal injection of 2% sodium pentobarbital (0.1 mL/20 g), and the back was shaved with an electric razor and disinfected with iodophor. A hole was punched in the exposed back by a biopsy punch having a diameter of 8 mm. After the operation, the mice were kept in separate cages until the end of the experiment. The mice were randomly divided into 6 groups having 5 animals in each group, including a negative control group (20 μL PBS), a natural Ot-WHP group (20 μL, 200 μg/mL), a synthetic Ot-WHP group (20 μL, 200 μg/mL), a scrambled Ot-WHP group (SEQ ID NO:2, 20 μL, 200 μg/mL), an AH90 positive polypeptide control group (20 μL, 200 μg/mL), and an EGF growth factor control group (20 μL, 100 μg/mL). The drugs were dripped into corresponding wounds in mice once a day for 8 days.
FIGS. 3A1-A4 show the wound healing rate of mice in different experimental groups at 2, 4, 6, and 8 days after surgery. In the figures, Vehicle represents the negative control group; synthetic Ot-WHP represents the synthetic Ot-WHP group; Natural Ot-WHP represents the natural Ot-WHP group; and Scrambled Ot-WHP represents the scrambled Ot-WHP group.

Consider “scrambled Ot-WHP: scrambled Ot-WHP, SEQ ID NO:2, control peptide (PGPIPAHLGRRWAILIRPDLTRCG; Scrambled Ot-WHP Peptide) [reference compound]”, for which the “healing of mouse skin wounds (wound healing rate)” value was “no activity to promote wound repair”.
